Measured values published in patent publication US20250388582A1, “NOVEL BICYCLIC HETEROARYL COMPOUND AND USE THEREOF” (ILDONG PHARMACEUTICAL CO., LTD., priority 2022, published 2025).
pIC50: −log10 of the molar value.

Columns and labels:
[1] = target: T1, human GST-PIKFYVE (Homo sapiens, UniProt Q9Y2I7); assay: ADP-Glo kinase assay, enzyme inhibition activity against human PIKFYVE (Carna biosciences); format: biochemical; conditions: inhibitory activity at final compound concentration 10 nM; 1 hour at room temperature
T1 construct: GST; purchased Carna biosciences 11-118
Summary of the method: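 Human GST-PIKFYVE (glutathione Sepharose-purified) was reacted with substrate and ATP for 1 h at room temperature in 50 mM MOPS, 1 mM DTT, pH 7.2, with compound at 10 nM final. ADP formed was read by ADP-Glo luminescence; inhibition was calculated against no-enzyme (100%) and no-compound (0%) controls.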

[2] = target: T2, PIKFYVE (Homo sapiens, UniProt Q9Y2I7); assay: NanoBRET TE Intracellular Kinase Assay, interaction of PIKFYVE and compounds in HEK293 cells; format: cell-based; conditions: IC50 class from BRET; HEK293 cells expressing PIKFYVE-NanoLuc; 2 hours incubation
T2 construct: host or cells: HEK293 (ATCC, CRL-1573)
Method: To predict the efficacy of the compounds according to Example on PIKFYVE in humans, the interaction between PIKFYVE and the compounds was tested using the HEK293 cell line derived from human embryonic kidney (ATCC, CRL-1573) via NanoBRETT TE Intracellular Kinase Assay Service of Carna biosciences Inc., (Japan). The evaluation method provided by Carna biosciences Inc., was shown below and the NanoBRET™ TE Intracellular Kinase Assay, K-8 Kit (Promega, CS1810C88) was used.
The HEK-293 cells cultured in Opti-MEM™ I Reduced Serum Medium (Thermo Fisher, 11058-021) were transfected with Transfection Carrier DNA (Promega, E4881), PIKFYVE-NanoLuc Fusion Vector (Promega, CS1810C225), and FuGENE HD Transfection Reagent (Promega, E2311) to produce cells expressing genes combining PIKFYVE and NanoLuc, followed by culturing 100 μl (2×10^5 cells/ml) each in 96-well plates (Corning, 3917).
10× compounds according to Examples or Comparative Examples prepared by concentration in 1× NanoBRET™ tracer reagent and DMSO were reacted in 96-well plates and incubated for 2 hours in a 37° C., 5% CO2 incubator.
After the reaction was completed, 3× Complete NanoBRET™ Nano-Glo Substrate solution was added to each well, and the reaction was allowed to run for 2-3 minutes at room temperature before BRET was measured using a GloMax Discover Multimode Microplate Reader (Promega).

T1 sequence (Q9Y2I7 whole entry): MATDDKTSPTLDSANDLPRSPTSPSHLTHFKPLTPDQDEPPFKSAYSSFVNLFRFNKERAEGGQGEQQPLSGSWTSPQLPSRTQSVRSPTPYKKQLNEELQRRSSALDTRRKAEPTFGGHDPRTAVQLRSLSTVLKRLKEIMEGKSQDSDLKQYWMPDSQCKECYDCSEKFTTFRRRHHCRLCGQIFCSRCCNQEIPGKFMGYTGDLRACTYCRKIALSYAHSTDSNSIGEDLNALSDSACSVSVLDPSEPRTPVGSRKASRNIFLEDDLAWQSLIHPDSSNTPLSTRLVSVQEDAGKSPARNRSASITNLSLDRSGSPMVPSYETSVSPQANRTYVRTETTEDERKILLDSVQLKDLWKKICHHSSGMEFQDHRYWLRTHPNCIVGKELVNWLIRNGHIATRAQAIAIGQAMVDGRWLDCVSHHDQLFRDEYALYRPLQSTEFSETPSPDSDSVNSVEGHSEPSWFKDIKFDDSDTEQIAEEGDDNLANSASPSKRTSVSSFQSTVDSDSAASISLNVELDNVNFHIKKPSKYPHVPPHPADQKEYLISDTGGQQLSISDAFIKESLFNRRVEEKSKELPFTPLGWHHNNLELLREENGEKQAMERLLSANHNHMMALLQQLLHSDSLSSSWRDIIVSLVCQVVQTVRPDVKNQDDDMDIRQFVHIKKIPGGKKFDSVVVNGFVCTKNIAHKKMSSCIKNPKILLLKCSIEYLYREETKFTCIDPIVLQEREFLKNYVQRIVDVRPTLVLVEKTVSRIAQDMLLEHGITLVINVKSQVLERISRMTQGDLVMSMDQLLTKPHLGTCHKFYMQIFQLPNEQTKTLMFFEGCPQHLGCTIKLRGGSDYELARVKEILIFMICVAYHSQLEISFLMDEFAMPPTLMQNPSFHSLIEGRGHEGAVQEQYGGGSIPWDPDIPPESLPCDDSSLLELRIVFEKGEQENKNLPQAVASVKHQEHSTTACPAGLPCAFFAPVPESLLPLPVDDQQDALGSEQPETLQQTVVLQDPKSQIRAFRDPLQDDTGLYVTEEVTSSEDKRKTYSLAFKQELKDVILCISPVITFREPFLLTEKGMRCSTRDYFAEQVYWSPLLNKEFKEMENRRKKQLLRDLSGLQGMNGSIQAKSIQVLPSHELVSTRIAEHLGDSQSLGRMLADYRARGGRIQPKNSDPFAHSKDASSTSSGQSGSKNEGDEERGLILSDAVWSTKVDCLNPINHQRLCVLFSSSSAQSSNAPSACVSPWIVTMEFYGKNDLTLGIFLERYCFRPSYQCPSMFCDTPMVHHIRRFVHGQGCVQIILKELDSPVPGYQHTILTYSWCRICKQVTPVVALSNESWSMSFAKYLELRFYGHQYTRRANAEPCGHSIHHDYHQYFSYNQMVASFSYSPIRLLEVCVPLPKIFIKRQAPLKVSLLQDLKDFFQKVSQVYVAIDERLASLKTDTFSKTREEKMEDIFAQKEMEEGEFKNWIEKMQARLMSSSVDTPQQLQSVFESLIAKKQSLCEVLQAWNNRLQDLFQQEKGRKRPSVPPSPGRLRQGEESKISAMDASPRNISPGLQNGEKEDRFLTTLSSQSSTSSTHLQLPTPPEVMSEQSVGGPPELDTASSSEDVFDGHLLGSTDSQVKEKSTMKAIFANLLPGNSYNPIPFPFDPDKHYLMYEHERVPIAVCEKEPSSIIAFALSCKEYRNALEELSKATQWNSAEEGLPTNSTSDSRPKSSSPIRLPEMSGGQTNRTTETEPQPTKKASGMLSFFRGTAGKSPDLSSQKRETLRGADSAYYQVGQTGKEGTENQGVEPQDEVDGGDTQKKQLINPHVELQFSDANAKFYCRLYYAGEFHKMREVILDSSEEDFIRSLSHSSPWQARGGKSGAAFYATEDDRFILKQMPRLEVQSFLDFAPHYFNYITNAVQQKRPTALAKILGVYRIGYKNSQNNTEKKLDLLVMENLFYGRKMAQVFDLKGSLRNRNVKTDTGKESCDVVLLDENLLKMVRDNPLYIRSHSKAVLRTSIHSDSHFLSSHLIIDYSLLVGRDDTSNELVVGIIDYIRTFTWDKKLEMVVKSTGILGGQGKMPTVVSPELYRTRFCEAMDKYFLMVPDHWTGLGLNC
T2 sequence (Q9Y2I7 whole entry): as above

Question: How did the “ADP-Glo kinase assay (%, 10 nM)” value [1] turn out when `Cc1cccc(/C=N/Nc2nc(N3CCOCC3)nc3c2ncn3CC(F)(F)c2ccccn2)c1` [Example 26, (E)-4-(9-(2,2-difluoro-2-(pyridin-2-yl)ethyl)-6-(2-(3-methylbenzylidene)hydrazinyl)-9H-purin-2-yl)morpholine] was run?
Answer: 80.87%

Question: What about the pIC50 [2] of the same compound?
Answer: 7.70 to 8.00

Question: What does the source list for `Cc1cccc(/C=N/Nc2nc(N3CCOCC3)nc3c2ncn3-c2ccc(O)nc2)c1` [Example 114, (E)-5-(6-(2-(3-methylbenzylidene)hydrazinyl)-2-morpholino-9H-purin-9-yl)pyridin-2-ol]?
Answer: ADP-Glo kinase assay (%, 10 nM) [1]: 80.06%; pIC50 [2]: 7.52 to 7.70

Question: `Cc1cccc(/C=N/Nc2nc(N3CCOCC3)nc3c2ncn3Cc2ccccn2)c1` [Example 20, (E)-4-(6-(2-(3-methylbenzylidene)hydrazinyl)-9-(pyridin-2-ylmethyl)-9H-purin-2-yl)morpholine] was tested. Which “ADP-Glo kinase assay (%, 10 nM)” value [1] did it give?
Answer: 78.53%

Question: And the pIC50 [2]?
Answer: 7.70 to 8.00

Question: Which results are given for `Cc1cccc(/C=N/Nc2nc(N3CCOCC3)nc3c2ncn3CC(=O)c2ccc(Cl)cc2)c1` [Example 25, (E)-1-(4-chlorophenyl)-2-(6-(2-(3-methylbenzylidene)hydrazinyl)-2-morpholino-9H-purin-9-yl)ethan-1-one]?
Answer: ADP-Glo kinase assay (%, 10 nM) [1]: 72.46%; pIC50 [2]: 7.70 to 8.00

Question: How did the “ADP-Glo kinase assay (%, 10 nM)” value [1] turn out when `Cc1cccc(/C=N/Nc2nc(N3CCOCC3)nc3c2ncn3-c2cccc(OC3CC3)c2)c1` [Example 125, (E)-4-(9-(3-cyclopropoxyphenyl)-6-(2-(3-methylbenzylidene)hydrazinyl)-9H-purin-2-yl)morpholine] was run?
Answer: 65.27%

Question: What about the pIC50 [2] of the same compound?
Answer: ≥ 8.00

Question: Which results are given for `Cc1cccc(/C=N/Nc2nc(N3CCOCC3)nc3c2ncn3CC2(C)COC2)c1` [Example 74, (E)-4-(6-(2-(3-methylbenzylidene)hydrazinyl)-9-((3-methyloxetan-3-yl)methyl)-9H-purin-2-yl)morpholine]?
Answer: ADP-Glo kinase assay (%, 10 nM) [1]: 69.71%; pIC50 [2]: 7.52 to 7.70

Question: Which results are given for `COc1cccc(-n2cnc3c(-n4ccc(-c5cccc(C)c5)n4)nc(N4CCOCC4)nc32)c1` [Example 137, 4-(9-(3-methoxyphenyl)-6-(3-(m-tolyl)-1H-pyrazol-1-yl)-9H-purin-2-yl)morpholine]?
Answer: ADP-Glo kinase assay (%, 10 nM) [1]: 81.44%; pIC50 [2]: ≥ 8.00

Question: `Cc1cccc(/C=N/Nc2nc(N3CCOCC3)nc3c2ncn3CC(=O)c2ccc(C#N)cc2)c1` [Example 35, (E)-4-(2-(6-(2-(3-methylbenzylidene)hydrazinyl)-2-morpholino-9H-purin-9-yl)acetyl)benzonitrile] was tested. Which “ADP-Glo kinase assay (%, 10 nM)” value [1] did it give?
Answer: 70.11%

Question: What about the pIC50 [2] of the same compound?
Answer: 7.70 to 8.00

Question: How did the “ADP-Glo kinase assay (%, 10 nM)” value [1] turn out when `Cc1cccc(/C=N/Nc2nc(N3CCOCC3)nc3c2ncn3-c2ccc(C)nc2)c1` [Example 110, (E)-4-(6-(2-(3-methylbenzylidene)hydrazinyl)-9-(6-methylpyridin-3-yl)-9H-purin-2-yl)morpholine] was run?
Answer: 88.60%

Question: What about the pIC50 [2] of the same compound?
Answer: ≥ 8.00

Question: `Cc1cccc(/C=N/Nc2nc(N3CCOCC3)nc3c2ncn3CCc2ccccn2)c1` [Example 73, (E)-4-(6-(2-(3-methylbenzylidene)hydrazinyl)-9-(2-(pyridin-2-yl)ethyl)-9H-purin-2-yl)morpholine] was tested. Which “ADP-Glo kinase assay (%, 10 nM)” value [1] did it give?
Answer: 80.98%

Question: What about the pIC50 [2] of the same compound?
Answer: 7.70 to 8.00

Question: Which “ADP-Glo kinase assay (%, 10 nM)” value [1] does the source give for `Cc1cccc(/C=N/Nc2nc(N3CCOCC3)nc3c2ncn3CC(=O)c2ccc(C(F)(F)F)cc2)c1` [Example 45, (E)-2-(6-(2-(3-methylbenzylidene)hydrazinyl)-2-morpholino-9H-purin-9-yl)-1-(4-(trifluoromethyl)phenyl)ethan-1-one] here?
Answer: 67.70%

Question: What about the pIC50 [2] of the same compound?
Answer: 7.52 to 7.70

Question: `Cc1cccc(/C=N/Nc2nc(N3CCOCC3)nc3c2ncn3CC(=O)c2ccccc2C)c1` [Example 40, (E)-2-(6-(2-(3-methylbenzylidene)hydrazinyl)-2-morpholino-9H-purin-9-yl)-1-(o-tolyl)ethan-1-one] was tested. Which “ADP-Glo kinase assay (%, 10 nM)” value [1] did it give?
Answer: 86.29%

Question: And the pIC50 [2]?
Answer: ≥ 8.00

Question: What does the source list for `C(=N\Nc1nc(N2CCOCC2)nc2c1ncn2-c1ccncc1)/c1c[nH]c2ccccc12` [Example 112, (E)-4-(6-(2-((1H-indol-3-yl)methylene)hydrazinyl)-9-(pyridin-4-yl)-9H-purin-2-yl)morpholine]?
Answer: ADP-Glo kinase assay (%, 10 nM) [1]: 89.10%; pIC50 [2]: ≥ 8.00
